Patent publication US11324728B2, “Dosing regimens for the treatment of fungal infections” (Seren Pharmaceuticals Inc., priority 2017, dated 2022)

System: onychomycosis of the toenail
Assay: Phase II clinical study: changes over time in efficacy of the target nail (turbidity area ratio, clinical cure, relapse/reinfection)
Assay type: in vivo, human
Details: for Clinical cure (no visual sign of infection) / Clinical cure rate and 95% CI / Remaining of the visual sign of infection: target nail; for Clinical cure (no visual sign of infection) / Clinical cure rate and 95% CI / Remaining of the visual sign of infection / turbidity area ratio regarding the target nail, Mean / turbidity area ratio regarding the target nail, Median: PPS
Experimental: A Phase II clinical pharmacology study was conducted in subjects with onychomycosis of the toenail. The study investigated the pharmacokinetics, efficacy and safety of three different dosing regimens of fosravuconazole. […] The three treatment groups were as follows: • a.
The efficacy endpoints were: (1) overall clinical efficacy; (2) changes over time in efficacy; (3) confirmation of elements of dermatophytes by direct microscopy; and (4) results of identification of dermatophytes by the polymerase chain reaction (PCR) method.

C[C@@H](c1nc(-c2ccc(C#N)cc2)cs1)[C@@](Cn1cncn1)(OCOP(=O)(O)O)c1ccc(F)cc1F [fosravuconazole, 4-[2-[(1R,2R)-2-(2,4-difluorophenyl)-1-methyl-2-[(phosphonooxy)methoxy]-3-(1H-1,2,4-triazol-1-yl)propyl]-4-thiazolyl]benzo-nitrile]
relapse/reinfection (100 mg (once daily dose) group): no subject | Clinical cure (no visual sign of infection) (100 mg group, Week 48): 11 | Clinical cure rate and 95% CI (100 mg group, Week 48): 44.0 (24.5, 65.0) % | Remaining of the visual sign of infection (100 mg group, Week 48): 14 | turbidity area ratio regarding the target nail, Mean (100 mg, Start day of treatment): 76.9% | turbidity area ratio regarding the target nail, Median (100 mg, Start day of treatment): 75.5% | turbidity area ratio regarding the target nail, Mean (100 mg, Week 4): 72.9% | turbidity area ratio regarding the target nail, Median (100 mg, Week 4): 72.0% | turbidity area ratio regarding the target nail, Mean (100 mg, Week 8): 65.9% | turbidity area ratio regarding the target nail, Median (100 mg, Week 8): 67.0% | turbidity area ratio regarding the target nail, Mean (100 mg, Week 12): 55.6% | turbidity area ratio regarding the target nail, Median (100 mg, Week 12): 56.0% | turbidity area ratio regarding the target nail, Mean (100 mg, Week 16): 44.2% | turbidity area ratio regarding the target nail, Median (100 mg, Week 16): 46.0% | turbidity area ratio regarding the target nail, Mean (100 mg, Week 20): 34.6% | turbidity area ratio regarding the target nail, Median (100 mg, Week 20): 36.0% | turbidity area ratio regarding the target nail, Mean (100 mg, Week 24): 26.5% | turbidity area ratio regarding the target nail, Median (100 mg, Week 24): 25.0% | turbidity area ratio regarding the target nail, Mean (100 mg, Week 28): 19.4% | turbidity area ratio regarding the target nail, Median (100 mg, Week 28): 18.0% | turbidity area ratio regarding the target nail, Mean (100 mg, Week 32): 14.4% | turbidity area ratio regarding the target nail, Median (100 mg, Week 32): 15.0% | turbidity area ratio regarding the target nail, Mean (100 mg, Week 36): 12.0% | turbidity area ratio regarding the target nail, Median (100 mg, Week 36): 9.0% | turbidity area ratio regarding the target nail, Mean (100 mg, Week 40): 9.6% | turbidity area ratio regarding the target nail, Median (100 mg, Week 40): 12.0% | turbidity area ratio regarding the target nail, Mean (100 mg, Week 44): 8.6% | turbidity area ratio regarding the target nail, Median (100 mg, Week 44): 8.0% | turbidity area ratio regarding the target nail, Mean (100 mg, Week 48): 9.3% | turbidity area ratio regarding the target nail, Median (100 mg, Week 48): 6.0% | relapse/reinfection (200 mg (pulse treatment) group): 4 subjects | Clinical cure (no visual sign of infection) (200 mg group, Week 48): 7 | Clinical cure rate and 95% CI (200 mg group, Week 48): 31.8 (13.9, 54.8) % | Remaining of the visual sign of infection (200 mg group, Week 48): 15 | turbidity area ratio regarding the target nail, Mean (200 mg, Start day of treatment): 76.4% | turbidity area ratio regarding the target nail, Median (200 mg, Start day of treatment): 74.0% | turbidity area ratio regarding the target nail, Mean (200 mg, Week 4): 69.6% | turbidity area ratio regarding the target nail, Median (200 mg, Week 4): 70.0% | turbidity area ratio regarding the target nail, Mean (200 mg, Week 8): 59.8% | turbidity area ratio regarding the target nail, Median (200 mg, Week 8): 58.5% | turbidity area ratio regarding the target nail, Mean (200 mg, Week 12): 51.4% | turbidity area ratio regarding the target nail, Median (200 mg, Week 12): 49.0% | turbidity area ratio regarding the target nail, Mean (200 mg, Week 16): 45.0% | turbidity area ratio regarding the target nail, Median (200 mg, Week 16): 45.0% | turbidity area ratio regarding the target nail, Mean (200 mg, Week 20): 35.8% | turbidity area ratio regarding the target nail, Median (200 mg, Week 20): 34.0% | turbidity area ratio regarding the target nail, Mean (200 mg, Week 24): 27.9% | turbidity area ratio regarding the target nail, Median (200 mg, Week 24): 25.0% | turbidity area ratio regarding the target nail, Mean (200 mg, Week 28): 23.3% | turbidity area ratio regarding the target nail, Median (200 mg, Week 28): 18.0% | turbidity area ratio regarding the target nail, Mean (200 mg, Week 32): 20.0% | turbidity area ratio regarding the target nail, Median (200 mg, Week 32): 9.0% | turbidity area ratio regarding the target nail, Mean (200 mg, Week 36): 18.2% | turbidity area ratio regarding the target nail, Median (200 mg, Week 36): 11.5% | turbidity area ratio regarding the target nail, Mean (200 mg, Week 40): 16.0% | turbidity area ratio regarding the target nail, Median (200 mg, Week 40): 10.0% | turbidity area ratio regarding the target nail, Mean (200 mg, Week 44): 13.5% | turbidity area ratio regarding the target nail, Median (200 mg, Week 44): 5.0% | turbidity area ratio regarding the target nail, Mean (200 mg, Week 48): 14.6% | turbidity area ratio regarding the target nail, Median (200 mg, Week 48): 9.0% | Clinical cure (no visual sign of infection) (300 mg group, Week 48): 11 | Clinical cure rate and 95% CI (300 mg group, Week 48): 40.7 (22.4, 61.2) % | Remaining of the visual sign of infection (300 mg group, Week 48): 16 | relapse/reinfection (400 mg group): 1 subject | turbidity area ratio regarding the target nail, Mean (400 mg, Start day of treatment): 74.4% | turbidity area ratio regarding the target nail, Median (400 mg, Start day of treatment): 76.0% | turbidity area ratio regarding the target nail, Mean (400 mg, Week 4): 66.9% | turbidity area ratio regarding the target nail, Median (400 mg, Week 4): 67.0% | turbidity area ratio regarding the target nail, Mean (400 mg, Week 8): 57.4% | turbidity area ratio regarding the target nail, Median (400 mg, Week 8): 59.0% | turbidity area ratio regarding the target nail, Mean (400 mg, Week 12): 49.3% | turbidity area ratio regarding the target nail, Median (400 mg, Week 12): 52.0% | turbidity area ratio regarding the target nail, Mean (400 mg, Week 16): 40.6% | turbidity area ratio regarding the target nail, Median (400 mg, Week 16): 41.0% | turbidity area ratio regarding the target nail, Mean (400 mg, Week 20): 31.1% | turbidity area ratio regarding the target nail, Median (400 mg, Week 20): 29.0% | turbidity area ratio regarding the target nail, Mean (400 mg, Week 24): 25.7% | turbidity area ratio regarding the target nail, Median (400 mg, Week 24): 20.0% | turbidity area ratio regarding the target nail, Mean (400 mg, Week 28): 18.3% | turbidity area ratio regarding the target nail, Median (400 mg, Week 28): 16.0% | turbidity area ratio regarding the target nail, Mean (400 mg, Week 32): 14.9% | turbidity area ratio regarding the target nail, Median (400 mg, Week 32): 12.0% | turbidity area ratio regarding the target nail, Mean (400 mg, Week 36): 13.5% | turbidity area ratio regarding the target nail, Median (400 mg, Week 36): 9.0% | turbidity area ratio regarding the target nail, Mean (400 mg, Week 40): 11.8% | turbidity area ratio regarding the target nail, Median (400 mg, Week 40): 6.0% | turbidity area ratio regarding the target nail, Mean (400 mg, Week 44): 11.9% | turbidity area ratio regarding the target nail, Median (400 mg, Week 44): 6.0% | turbidity area ratio regarding the target nail, Mean (400 mg, Week 48): 12.7% | turbidity area ratio regarding the target nail, Median (400 mg, Week 48): 8.0%
